Data as given in patent US20120108557A1, “FLUOROQUINOLONE DERIVATIVES FOR OPHTHALMIC APPLICATIONS” (ALCON RESEARCH, LTD., priority 2008, published 2012).

Legend:
Type in all cases: cell-based
MRSE = experiment: In vitro antimicrobial activity, agar dilution MIC
Method: (§1) The activity of the compounds of the present invention was evaluated using an in vitro assay. Microorganisms were prepared from growth on agar media, in broth culture, or from thawed cryopreserved cultures. Fungal cultures were filtered to remove mycelial elements.
(§2) Using Mueller Hinton II Broth, 0.9% saline or other appropriate media, a suspension of each culture was prepared and adjusted to a turbidity equivalent to that of a 0.5 McFarland Standard. (Cultures adjusted to the 0.5 McFarland Standard generally contain approximately 1.0×10^8 CFU/mL). The adjusted suspension for each culture was diluted 1:10 in the appropriate media so that the inoculum concentration approximates 1.0×10^7 CFU/mL.
(§3) The antimicrobial agent to be tested was weighed and diluted with a volume of sterile distilled water calculated to yield the necessary starting concentration. Serial 1:2 dilutions of the antimicrobial agent in sterile distilled water were prepared (approximately 10-12 test concentrations comprise a reasonable experimental range). A known amount of each antimicrobial dilution was combined with an aliquot of agar medium calculated to yield the desired final antimicrobial test concentration and dispensed onto plates.
(§4) The amount of antimicrobial agent to be weighed was determined using the following equation: […]
(§5) Antimicrobial stock solutions were prepared at concentrations 5-10 times the highest concentration to be tested (routinely 1024 μg/mL). […] The stock solution was diluted to appropriate concentration using sterile water to form a working solution. The working solution was diluted two-fold, in sterile water, until the desired concentration is obtained.
(§6) Mueller Hinton II agar was prepared as described by the manufacturer. Mueller Hinton II agar may be supplemented with 5% defibrinated sheep blood for testing streptococci. Agar was added to the serially diluted antimicrobial solution in each container. The solutions were mixed thoroughly and poured into petri dishes (about 25 mL/plate). The pH of the agar at 25° C. should be between 7.2 and 7.4.
(§7) At least one inocula control plate was inoculated (agar medium without antimicrobial agent) from each seed plate before inoculating test plates. Test plates were inoculated starting at the lowest concentration and proceeding to the highest concentration. After all test plates were inoculated, an additional control plate (agar medium without antimicrobial agent) was inoculated. The plates were incubated in a non-CO2 incubator (or CO2 incubator depending on growth requirements); 18-24 hours at 32-35° C. was sufficient for most organisms.
(§8) All inoculation points on the agar surface were examined for the presence of growth as compared to the inoculum control plates. The results were summarized and use to determine Minimal Inhibitory Concentrations (MICs): The MIC is the lowest concentration of the antimicrobial agent which prevents visible growth of the organism (negative score).

Morganella morganii = experiment: In vitro antimicrobial activity, agar dilution MIC
Method: as §1, §2, §3, §4, §5, §6, §7, §8

Staphylococcus aureus = experiment: In vitro antimicrobial activity, agar dilution MIC
Method: as §1, §2, §3, §4, §5, §6, §7, §8

Enterobacter hormaechei = experiment: In vitro antimicrobial activity, agar dilution MIC
Method: as §1, §2, §3, §4, §5, §6, §7, §8

Pseudomonas aeruginosa = experiment: In vitro antimicrobial activity, agar dilution MIC
Method: as §1, §2, §3, §4, §5, §6, §7, §8

Streptococcus mitis = experiment: In vitro antimicrobial activity, agar dilution MIC
Method: as §1, §2, §3, §4, §5, §6, §7, §8

Acinetobacter baumannii = experiment: In vitro antimicrobial activity, agar dilution MIC; details: test organism 26, Acinetobacter baumannii
Method: as §1, §2, §3, §4, §5, §6, §7, §8

microorganisms = experiment: In vitro antimicrobial activity test, whole panel of test organisms; details: across the test organisms of TABLE 3
Method: as §1, §2, §3, §4, §5
as §6, with “7.4. […]” for “7.4.”

[1] = test organism 35, Morganella morganii
[2] = test organism 36, Morganella morganii
[3] = test organism 1, Staphylococcus aureus
[4] = test organism 2, Staphylococcus aureus
[5] = test organism 30, Enterobacter hormaechei
[6] = test organism 31, Enterobacter hormaechei
[7] = test organism 37, Pseudomonas aeruginosa
[8] = test organism 38, Pseudomonas aeruginosa
[9] = test organism 21, Streptococcus mitis
[10] = test organism 22, Streptococcus mitis
[11] = test organism 23, Streptococcus mitis

SMILES | Minimal Inhibitory Concentration (MIC) (MRSE; test organism 9, MRSE) | Minimal Inhibitory Concentration (MIC) (MRSE; test organism 10, MRSE) | Minimal Inhibitory Concentration (MIC) (MRSE; test organism 11, MRSE) | Minimal Inhibitory Concentration (MIC) (Morganella morganii; [1]) | Minimal Inhibitory Concentration (MIC) (Morganella morganii; [2]) | Minimal Inhibitory Concentration (MIC) (Staphylococcus aureus; [3]) | Minimal Inhibitory Concentration (MIC) (Staphylococcus aureus; [4]) | Minimal Inhibitory Concentration (MIC) (Enterobacter hormaechei; [5]) | Minimal Inhibitory Concentration (MIC) (Enterobacter hormaechei; [6]) | Minimal Inhibitory Concentration (MIC) (Pseudomonas aeruginosa; [7]) | Minimal Inhibitory Concentration (MIC) (Pseudomonas aeruginosa; [8]) | Minimal Inhibitory Concentration (MIC) (Streptococcus mitis; [9]) | Minimal Inhibitory Concentration (MIC) (Streptococcus mitis; [10]) | Minimal Inhibitory Concentration (MIC) (Streptococcus mitis; [11]) | Minimal Inhibitory Concentration (MIC) (Acinetobacter baumannii) | antimicrobial activity compared to moxifloxacin (in words) (microorganisms)
Nc1c(F)c(N2CC3CCCNC3C2)c(F)c2c1c(=O)c(C(=O)O)cn2C1CC1 (racemic) [Compound 3 (racemic)] | >2 | >2 | >4 | 0.5 | 1 | ≦0.03 | 0.5 | 0.5 | 4 | >4 | 2 | 0.5 | 0.06 | 1 | 0.5 | 
CN1CCCC2CN(c3cc4c(cc3F)c(=O)c(C(=O)O)cn4C3CC3)CC21 (stereo not drawn) [Compound 2] | >2 | >2 | >4 | 1 | 2 | 0.125 | ≦0.25 | 0.25 | >4 | >4 | >4 | ≦0.25 | 0.5 | >4 | ≦0.25 | generally did not perform as well as moxifloxacin
Nc1c(F)c(N2CC3CCCNC3C2)c(F)c2c1c(=O)c(C(=O)O)cn2C1CC1 [Compound 3 (S,S)] | >2 | >2 | >4 | 0.125 | 1 | ≦0.03 | ≦0.25 |  | 4 | >4 | 0.5 | ≦0.25 | 0.125 | 1 | ≦0.25 | 
CN1CCCC2CN(c3c(F)cc4c(=O)c(C(=O)O)cn(C5CC5)c4c3F)CC21 (stereo not drawn) [Compound 1] | >2 | >2 | >4 | 0.5 | 2 | 0.06 | ≦0.25 |  | 4 | >4 | 2 | 0.5 | 0.25 | 2 | 0.5 | somewhat better antimicrobial activity against certain microorganisms compared to moxifloxacin, and performed comparably when taken as a whole
